From the supplement of paper PMC10307832

What was measured:
Assay in all cases: relative viability (nuclei count vs DMSO), 5 days (fraction); higher = more cells survive
[1] = compound: CO[C@H]1C[C@@H]2CC[C@@H](C)[C@@](O)(O2)C(=O)C(=O)N2CCCC[C@H]2C(=O)O[C@H]([C@H](C)C[C@@H]2CC[C@@H](OCCO)[C@H](OC)C2)CC(=O)[C@H](C)/C=C(\C)[C@@H](O)[C@@H](OC)C(=O)[C@H](C)C[C@H](C)/C=C/C=C/C=C/1C [Everolimus] + Cc1nc(NC(=O)N2CCC[C@H]2C(N)=O)sc1-c1ccnc(C(C)(C)C(F)(F)F)c1 [Alpelisib] (partner 2 µM)
How it was run: (§1)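 Lung cancer cell lines were pin-tool dosed in 1536-well plates on the day after seeding, with either a lone drug or a fixed anchor-drug dose plus five library-drug doses (not always all listed) in √10 steps. Nuclei were counted on 4× images after 5 days. Relative viability is the ratio of treated-well to vehicle-well nuclei counts, with each value a median of duplicate plates.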

[2] = compound: CO[C@H]1C[C@@H]2CC[C@@H](C)[C@@](O)(O2)C(=O)C(=O)N2CCCC[C@H]2C(=O)O[C@H]([C@H](C)C[C@@H]2CC[C@@H](OCCO)[C@H](OC)C2)CC(=O)[C@H](C)/C=C(\C)[C@@H](O)[C@@H](OC)C(=O)[C@H](C)C[C@H](C)/C=C/C=C/C=C/1C [Everolimus] + CC(C)C[C@H](NC(=O)[C@H](Cc1ccccc1)NC(=O)c1cnccn1)B(O)O [Bortezomib] (partner 0.002 µM)
How it was run: as §1

[3] = compound: CO[C@H]1C[C@@H]2CC[C@@H](C)[C@@](O)(O2)C(=O)C(=O)N2CCCC[C@H]2C(=O)O[C@H]([C@H](C)C[C@@H]2CC[C@@H](OCCO)[C@H](OC)C2)CC(=O)[C@H](C)/C=C(\C)[C@@H](O)[C@@H](OC)C(=O)[C@H](C)C[C@H](C)/C=C/C=C/C=C/1C [Everolimus] + Cc1nc(Nc2ncc(C(=O)Nc3c(C)cccc3Cl)s2)cc(N2CCN(CCO)CC2)n1 [Dasatinib] (partner 0.075 µM)
How it was run: as §1

[4] = compound: CO[C@H]1C[C@@H]2CC[C@@H](C)[C@@](O)(O2)C(=O)C(=O)N2CCCC[C@H]2C(=O)O[C@H]([C@H](C)C[C@@H]2CC[C@@H](OCCO)[C@H](OC)C2)CC(=O)[C@H](C)/C=C(\C)[C@@H](O)[C@@H](OC)C(=O)[C@H](C)C[C@H](C)/C=C/C=C/C=C/1C [Everolimus] + CC(=O)c1c(C)c2cnc(Nc3ccc(N4CCNCC4)cn3)nc2n(C2CCCC2)c1=O [Palbociclib] (partner 0.5 µM)
How it was run: as §1

Cell Line	relative viability ([1]; first compound 0.01 µM)	relative viability ([1]; first compound 0.03162 µM)	relative viability ([1]; first compound 0.1 µM)	relative viability ([1]; first compound 0.3162 µM)	relative viability ([1]; first compound 1 µM)	relative viability ([2]; first compound 0.01 µM)	relative viability ([2]; first compound 0.03162 µM)	relative viability ([2]; first compound 0.1 µM)	relative viability ([2]; first compound 0.3162 µM)	relative viability ([2]; first compound 1 µM)	relative viability ([3]; first compound 0.01 µM)	relative viability ([3]; first compound 0.03162 µM)	relative viability ([3]; first compound 0.1 µM)	relative viability ([3]; first compound 0.3162 µM)	relative viability ([3]; first compound 1 µM)	relative viability ([4]; first compound 0.01 µM)	relative viability ([4]; first compound 0.03162 µM)	relative viability ([4]; first compound 0.1 µM)	relative viability ([4]; first compound 0.3162 µM)	relative viability ([4]; first compound 1 µM)
LXF-289	0.993	0.967	0.901	0.973	0.868	0.976	1.01	0.987	1.03	1.01	0.291	0.199	0.151	0.197	0.178	0.583	0.542	0.504	0.504	0.476
UMC-11	0.348	0.304	0.301	0.32	0.311	0.325	0.34	0.301	0.356	0.362	0.307	0.293	0.326	0.319	0.302	0.261	0.262	0.282	0.3	0.272
LC-2-ad	0.752	0.885	0.754	0.737	0.818	1.05	1.1	0.997	0.943	1	0.544	0.51	0.515	0.427	0.505	0.543	0.572	0.564	0.561	0.475
A-427	0.795	0.709	0.754	0.675	0.787	0.783	0.891	0.778	0.742	0.768	0.527	0.526	0.397	0.462	0.489	0.474	0.546	0.445	0.48	0.557
NCI-H322M	0.686	0.577	0.578	0.585	0.58	0.974	0.995	1.01	0.939	0.948	0.243	0.245	0.245	0.243	0.244	0.473	0.454	0.409	0.47	0.424
HCC-366	0.334	0.231	0.251	0.25	0.267	1.02	1.07	0.983	0.878	0.772	0.459	0.593	0.477	0.46	0.354	0.337	0.156	0.216	0.207	0.106
NCI-H1975	0.494	0.454	0.456	0.376	0.339	0.335	0.357	0.317	0.372	0.313	0.305	0.264	0.222	0.298	0.183	0.481	0.398	0.524	0.454	0.358
NCI-H1437	0.566	0.438	0.549	0.507	0.294	0.443	0.505	0.342	0.302	0.413	0.243	0.267	0.21	0.209	0.317	0.319	0.313	0.253	0.239	0.248
NCI-H2009	0.763	0.741	0.791	0.846	0.906	0.739	0.863	0.484	0.864	0.812	0.214	0.218	0.225	0.244	0.215	0.105	0.109	0.103	0.127	0.108
NCI-H1651	0.639	0.454	0.611	0.537	0.451	0.766	0.66	0.8	0.731	0.564	0.297	0.335	0.259	0.24	0.405	0.474	0.405	0.363	0.351	0.341
LCLC-103H	0.887	0.855	0.846	0.776	0.639	1.06	1.01	1.02	1.07	0.749	0.404	0.305	0.35	0.319	0.322	0.511	0.49	0.465	0.453	0.546
NCI-H1666	0.776	0.509	0.584	0.496	0.511	0.644	0.527	0.494	0.56	0.533	0.826	0.722	0.795	0.78	0.813	0.567	0.642	0.599	0.693	0.631
NCI-H1734	0.449	0.398	0.466	0.399	0.463	0.529	0.624	0.497	0.515	0.546	0.276	0.301	0.265	0.266	0.316	0.285	0.241	0.288	0.251	0.258
